Measured values: patent US5389621A, “Method of enhancing the anticoagulant effects of aspirin using salicylamide” (University of Medicine and Dentistry of New Jersey, priority 1994, dated 1995)
Entries after “also recorded” stand apart in the source; their conditions may differ.

Columns and labels:
[1] = system: vascular cyclooxygenase; assay: 6-keto PG F1alpha production from thoracic aortic rings ex vivo; format: in vivo, male Sprague-Dawley rats; settings: for Inhibition of PG I2 (6-keto PG F1alpha) / vascular cyclooxygenase: ASA 10 mg/kg or SAM 9 mg/kg, rat thoracic aortic rings ex vivo
Procedure: The method used was a modification of that used by Dejana et al. (1981). Male Sprague-Dawley rats were randomly treated with either ASA (10 mg/kg), SAM (9 mg/kg), ASA/SAM (10/9 mg/kg), or isotonic saline. The rats were fasted overnight before administration of the treatments. Half an hour following treatment, the rats were exsanguinated by heart puncture under ether anesthesia and the thoracic aorta was immediately isolated, cleaned of adventitia, and flushed in situ with 5 ml of isotonic saline. The vessel was then removed and 2 rings (each was nearly 7 mg wet weight corresponding to 0.5 cm length) were cut from the middle part. The rings were immediately incubated in 160 μl of Krebs-Hanseleit buffer solution adjusted to pH 7.4 and containing AA (final concentration 4.3 mM) in polyethylene tubes. The tubes were incubated at 37° C. in a shaking water bath for 10 minutes. The reaction was terminated by the addition of 40 μl of EDTA/ASA solution and the tubes were centrifuged at 1800× g for 15 minutes at 4° C. 100 μl of the supernatant were used for the measurement of 6-keto PG F1alpha content as an indicator of its unstable precursor, PG I2. A specific radioimmunoassay (Amersham International) (vide infra) was employed.
Radioimmunoassay Procedure for Measurement of Thromboxane B2 and 6-keto PG F1alpha
The procedure described below is for thromboxane A2. A similar procedure was used for 6-keto PG F1alpha measurement.
One way ANOVA followed by Scheffe multiple range test was employed for treatment comparisons. The accepted level of significance was p<0.05.

[2] = cited from earlier work; for Absorption (ASA) / bioavailability (SAM) from oral solution vs solid forms: oral solutions vs tablets or suspensions
[3] = Plasma kinetics of total 14C after oral 14C-salicylamide alone or with aspirin; format: in vivo, male Sprague-Dawley rats; settings: for AUC.infin. of 14C: mean ± SE, n=6
Procedure: Male adult Sprague-Dawley rats (300-325 gm) obtained from Charles River Breeding Laboratory, N. Wilmington, Mass. were quarantined for one week. All animals were identified by ear punching. Food and water were provided ad libitum. The animals were maintained on rodent lab chow diet in a controlled environment with 50% humidity and 12 hour light/dark cycle.
Two dose combinations were employed. The low dose was 10 and/or 3 mg/kg of ASA and/or SAM, respectively, while the high dose was double the low dose. These doses were approximately equal (w/w) to that in commercially available combinations, e.g., BC® formula, when administered to humans.
Rats were divided into 2 groups; the first group consisted of 30 rats which were assigned to 5 subgroups, 6 rats each, according to the following treatment scheme:
The second group consisted of 4 subgroups and were administered double the dose received by the first group (with the exception of subgroup III).
The rats were fasted overnight (~18 hr.) before administration of the treatments and were allowed water ad libitum. The drug(s) to be given were prepared fresh in the morning of the study, dissolved in 2.5 ml of deionized water and gavaged to rats. […]
The samples were collected by heparinized plastic syringes and transferred to polyethylene test tubes. The samples, ~300 μl each, were rapidly centrifuged at 1800×g for 15 minutes at 4° C.
The terminal elimination rate constant (ke) was estimated by linear regression of the terminal β phase of the plasma concentration vs. time curves. The area under the curve (AUC.infin.) was calculated by using the trapezoidal method from zero to the last measured plasma concentration. The half-life of elimination (t1/2β) was obtained by the equation t1/2β =0.693/ke.
Total body clearance (ClT) was estimated by the equation ClT =Dose/AUC assuming a complete absorption of ASA and SAM (Iwamoto et al., 1982; Iwamoto et al., 1983). The apparent volume of distribution Vd was calculated from the formula, Vd =ClT /ke.

[4] = Tissue distribution of 14C radioactivity after 14C-salicylamide; format: in vivo, male Sprague-Dawley rats
Procedure: All animals were identified by ear punching. Food and water were provided ad libitum.
Forty-eight rats were divided into two groups.
Each group consisted of 24 rats and was further divided into 4 subgroups, 6 rats each, according to the following scheme:
The rats were fasted overnight. The drug(s) were prepared fresh, dissolved in 2.5 ml of deionized water and administered orally by gavage needle. The rats were allowed water ad libitum before and after the oral administration.
The different treatments were given according to the previous scheme and each rat received an amount of radioactivity equal to […] in the case of radioactive aspirin and 10 μCu in the case of radioactive salicylamide. For the low and high dose ASA treatments 3696 and 1848 dpm ^14 C-ASA/μg total ASA were used respectively. For SAM, 24.4 and 12.2 dpm ^14 C-SAM/ng total SAM were utilized for low and high dose treatments, respectively.
The rats were anesthetized by light diethyl ether inhalation.
The rest of the red blood cells were washed twice by adding 2 ml of physiological saline and were resuspended after each addition. The red blood cells were centrifuged at 3000 rpm (1800×g) for 10 minutes and 300 μl were pipetted in a scintillation vial for measurement of ^14 C radioactivity.
After collecting the blood sample, the rats were sacrificed immediately by a diethyl ether overdose. The following tissues were collected: liver, lung, kidney, heart, spleen, perinephric fat, brain, upper small intestine, stomach, pancreas, bone (femur and tibia), testis, skin and skeletal muscle. A sample of bone marrow was also collected (approximately20 mg).
300 mg tissue samples were placed in scintillation vials and 300 μl of 70% perchloric acid and 600 μl of 30% hydrogen peroxide were added to each vial and also to the vials containing the washed red blood cells aliquots. The vials were incubated at 75° C. for 1 hour in a shaking water bath and were tightly capped to prevent any loss of radioactivity by evaporation.
The vials were left to cool to room temperature for 15 minutes before 10 ml Aquasol-2 scintillation fluid was added to each vial. The total radioactivity was counted in a Beckman model 7500 LS spectrophotometer.

[5] = oral 14C-SAM 3 mg/kg, alone or with ASA 10 mg/kg
[6] = oral 14C-SAM 6 mg/kg, alone or with ASA 20 mg/kg
[7] = 1.5 hr, 14C-SAM 3 mg/kg, alone or with ASA 10 mg/kg
[8] = 1.5 hr, 14C-SAM 6 mg/kg, alone or with ASA 20 mg/kg
[9] = ASA 20 mg/kg with 14C-SAM 6 mg/kg

NC(=O)c1ccccc1O [SAM, Salicylamide]
Inhibition of PG I2 (6-keto PG F1alpha) / vascular cyclooxygenase [1]: partially, but still significantly, block vascular cyclooxygenase activity | Potentiation of ASA inhibitory effect on vascular cyclooxygenase ([1]; SAM with ASA, ex vivo): significant potentiation | Absorption (ASA) / bioavailability (SAM) from oral solution vs solid forms [2]: superior

N[14C](=O)c1ccccc1O [^14 C-SAM]
C1T total body clearance of 14C [3, 5]: 543.7 ± 89.5 mL/h | Cmax of 14C [3, 5]: 1800 ± 300 ng/mL | T1/2β elimination half-life of 14C [3, 5]: 1.1 ± 0.24 h | Vd apparent volume of distribution of 14C [3, 5]: 975 ± 152 mL | AUC.infin. of 14C [3, 5]: 1.9 ± 0.4 μ · hr/ml | C1T total body clearance of 14C [3, 6]: 501.1 ± 64.9 mL/h | Cmax of 14C [3, 6]: 3700 ± 500 ng/mL | T1/2β elimination half-life of 14C [3, 6]: 1.1 ± 0.1 h | Vd apparent volume of distribution of 14C [3, 6]: 824 ± 156 mL | AUC.infin. of 14C [3, 6]: 3.9 ± 0.5 μ · hr/ml | Organs with the highest 14C concentration ([4]; 14C-SAM alone or with ASA, low or high dose): kidney followed by the stomach | 14C radioactivity in RBCs [4, 7]: 103 ± 9 ngm/gm tissu | 14C radioactivity in blood [4, 7]: 146 ± 20 ngm/gm tissu | 14C radioactivity in bone [4, 7]: 60 ± 7 ngm/gm tissu | 14C radioactivity in bone marrow [4, 7]: 14 ± 2 ngm/50 mg bone marrow | 14C radioactivity in brain [4, 7]: 27 ± 5 ngm/gm tissu | 14C radioactivity in fat [4, 7]: 41 ± 8 ngm/gm tissu | 14C radioactivity in heart [4, 7]: 44 ± 5 ngm/gm tissu | 14C radioactivity in kidney [4, 7]: 665 ± 152 ngm/gm tissu | 14C radioactivity in liver [4, 7]: 100 ± 12 ngm/gm tissu | 14C radioactivity in lung [4, 7]: 91 ± 11 ngm/gm tissu | 14C radioactivity in muscle [4, 7]: 56 ± 7 ngm/gm tissu | 14C radioactivity in pancreas [4, 7]: 93 ± 9 ngm/gm tissu | 14C radioactivity in plasma [4, 7]: 147 ± 24 ngm/gm tissu | 14C radioactivity in skin [4, 7]: 107 ± 10 ngm/gm tissu | 14C radioactivity in spleen [4, 7]: 83 ± 20 ngm/gm tissu | 14C radioactivity in stomach [4, 7]: 550 ± 154 ngm/gm tissu | 14C radioactivity in testis (printed TESUIS) [4, 7]: 63 ± 7 ngm/gm tissu | 14C radioactivity in upper small intestine [4, 7]: 130 ± 27 ngm/gm tissu | 14C radioactivity in washed RBCs [4, 7]: 77 ± 10 ngm/gm tissu | 14C radioactivity in RBCs [4, 8]: 118 ± 22 ngm/gm tissu | 14C radioactivity in blood [4, 8]: 198 ± 32 ngm/gm tissu | 14C radioactivity in bone [4, 8]: 153 ± 38 ngm/gm tissu | 14C radioactivity in bone marrow [4, 8]: 29 ± 17 ngm/50 mg bone marrow | 14C radioactivity in brain [4, 8]: 33 ± 1 ngm/gm tissu | 14C radioactivity in fat [4, 8]: 130 ± 14 ngm/gm tissu | 14C radioactivity in heart [4, 8]: 106 ± 10 ngm/gm tissu | 14C radioactivity in kidney [4, 8]: 1358 ± 441 ngm/gm tissu | 14C radioactivity in liver [4, 8]: 136 ± 12 ngm/gm tissu | 14C radioactivity in lung [4, 8]: 218 ± 12 ngm/gm tissu | 14C radioactivity in muscle [4, 8]: 78 ± 3 ngm/gm tissu | 14C radioactivity in pancreas [4, 8]: 147 ± 9 ngm/gm tissu | 14C radioactivity in plasma [4, 8]: 237 ± 49 ngm/gm tissu | 14C radioactivity in skin [4, 8]: 240 ± 11 ngm/gm tissu | 14C radioactivity in spleen [4, 8]: 200 ± 26 ngm/gm tissu | 14C radioactivity in stomach [4, 8]: 832 ± 217 ngm/gm tissu | 14C radioactivity in testis [4, 8]: 155 ± 17 ngm/gm tissu | 14C radioactivity in upper small intestine [4, 8]: 268 ± 34 ngm/gm tissu | 14C radioactivity in washed RBCs [4, 8]: 92 ± 12 ngm/gm tissu

CC(=O)Oc1ccccc1C(=O)O [ASA, acetylsalicylic acid]
Inhibition of PG I2 (6-keto PG F1alpha) / vascular cyclooxygenase [1]: inhibited PG I2 | Apparent volume of distribution ([2]; children): 0.12 to 0.14 L/kg | Fraction reaching the peripheral circulation intact ([2]; oral aspirin, man): about 68% | Time of peak plasma concentration ([2]; oral soluble aspirin preparation, humans): 15 to 25 min | Absorption (ASA) / bioavailability (SAM) from oral solution vs solid forms [2]: superior | Absorption ([2]; oral, stomach and upper small intestine): rapidly and usually completely absorbed | Effect of ASA on AUC.infin. of 14C after 14C-SAM [3, 9]: significantly increased | Effect of ASA on elimination half-life of 14C after 14C-SAM [3, 9]: significantly increased | Effect of ASA on SAM kinetics ([3]; ASA low dose 10 mg/kg): did not significantly effect SAM kinetics | Effect of ASA on total body clearance of SAM ([3]; low and high dose combinations): tended to decrease | Change of tissue 14C in RBCs, bone, fat, skin, muscle, heart and others ([4]; 14C-SAM/ASA 3/10 mg/kg vs 14C-SAM alone): enhanced the tissue concentration; also recorded: significant elevation | Change of tissue 14C, high dose ([4]; 14C-SAM/ASA high dose vs 14C-SAM alone, liver, lung, RBCs, and muscle or heart): significantly augmented
